From patent publication US10913781B2, “Pepducin design and use” (Tufts Medical Center, Inc., priority 2011, dated 2021) come the findings set out here.

In data set [1] the target is T1, PAR2 (Mus musculus, UniProt P55086). Put plainly: Mouse neutrophil chemotaxis to trypsin. The following applies: 30 nM trypsin. The data set is classed as cell-based. As for the experimental part:
(§1) (A) Human neutrophils (n=4 normal volunteers) were analyzed for surface expression of human PAR1, PAR2, and PAR4 by flow cytometry with PAR-specific antibodies. […] Chemotaxis index is the ratio of directed versus random migration over 30 min through a 5-μm pore filter.
(§2) The ability of some pepducin embodiments of the invention to antagonize PAR2-dependent activity of human neutrophils was tested. Neutrophils were isolated from the peripheral blood of healthy human volunteers and found to express high levels of surface PAR2 and PAR4 and lower apparent levels of PAR1 by flow cytometry (FIG. 3A). […] As human PAR2 shares 85% identity with mouse PAR2 and the mouse i3 loop retains all of the critical pharmacophores identified in the human PAR2 i3 loop, cross-species inhibition with mouse cells was tested.

The target of data set [2] is T2, PAR2 (Homo sapiens, UniProt P55085). Put plainly: PAR2 binding to avidin beads coupled with PAR2 i3 loop 18S peptide.
T2 sequence (P55085 26-397): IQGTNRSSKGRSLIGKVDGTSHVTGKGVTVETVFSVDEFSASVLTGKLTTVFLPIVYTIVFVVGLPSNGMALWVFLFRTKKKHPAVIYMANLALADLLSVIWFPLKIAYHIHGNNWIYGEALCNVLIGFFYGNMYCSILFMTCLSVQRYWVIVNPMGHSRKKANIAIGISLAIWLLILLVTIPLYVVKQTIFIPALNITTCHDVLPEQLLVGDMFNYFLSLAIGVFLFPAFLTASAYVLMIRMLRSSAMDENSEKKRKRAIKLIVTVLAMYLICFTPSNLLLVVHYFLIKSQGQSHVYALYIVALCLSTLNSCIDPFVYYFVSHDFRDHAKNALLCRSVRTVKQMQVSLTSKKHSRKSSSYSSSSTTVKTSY
The target of data set [3] is T2, PAR2. The data set can be described thus: Trypsin cleavage of PAR2. Format: cell-based. An excerpt:
(§3) Additionally, we tested whether P2pal-18S inhibited proteolytic cleavage of PAR2 or endocytosis (DeFea K A, et al. (2000) J Cell Biol 148: 1267-81; Roosterman D, et al. (2003) Am J Physiol Cell Physiol 284: C1319-29; Stalheim L, et al. (2005) Mol Pharmacol 67: 78-87). […] Therefore, the P2pal-18S i3 loop pepducin can inhibit PAR2-dependent calcium signaling, PLC-b inositol phosphate formation, and cell migration, but not proteolytic cleavage or endocytosis.

The target in data set [4] is T2, PAR2. Put plainly: Ligand-dependent endocytosis of PAR2. Format: cell-based.
From the text: as §3

For data set [5], the target named is T3, PAR1 (Homo sapiens, UniProt P25116).
T3 sequence (P25116 22-425): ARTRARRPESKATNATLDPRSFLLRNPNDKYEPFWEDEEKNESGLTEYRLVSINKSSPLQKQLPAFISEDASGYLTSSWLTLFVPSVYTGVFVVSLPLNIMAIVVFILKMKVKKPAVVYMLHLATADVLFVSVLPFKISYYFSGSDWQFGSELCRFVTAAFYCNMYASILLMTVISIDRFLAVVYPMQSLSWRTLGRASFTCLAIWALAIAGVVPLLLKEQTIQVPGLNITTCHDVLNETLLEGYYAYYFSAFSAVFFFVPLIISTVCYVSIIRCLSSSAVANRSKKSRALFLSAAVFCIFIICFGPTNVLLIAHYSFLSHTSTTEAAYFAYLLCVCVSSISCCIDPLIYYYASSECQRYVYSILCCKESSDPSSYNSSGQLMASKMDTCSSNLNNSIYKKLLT
Put plainly: Ligand-dependent endocytosis of PAR1. Format: cell-based.

For data set [6], the target named is T1, PAR2. Put plainly: Mast cell conditioned media-induced mouse paw edema. Format: in vivo. The following applies: 10 mg/kg. Further details: from tissue; host or cells: living C57BL/6 mice, hindpaw. As for the experimental part: (A) Mast cells were treated with 2 mg/mL of mast cell degranulating agent 48/80 or 2% 1-carrageenan/4% kaolin. […] (B) P2pal-18S inhibits human neutrophil chemotaxis (n=6) to mast cell media. Human neutrophils were incubated with […] P2pal-18S, or […] mast cell tryptase inhibitor APC-366 and allowed to migrate 30 min toward CM from mast cells. (C) C57BL/6 mice (n=5) were pretreated with the tryptase inhibitor APC-366 (5 mg/kg, s.c.) or vehicle (20% DMSO) and then challenged with intraplantar injection of 1-carrageenan/kaolin. (D) Mast cell conditioned media (30 μL of 1-carrageenan/kaolin stimulated media) was injected into the hindpaws of C57BL/6 mice treated with 10 mg/kg P2pal-18S or vehicle (n=5). Data represent mean±SEM. #, P=0.07, *, P<0.05 and **, P<0.005. (E) Mast cell-deficient mice have a significant reduction in 1-carrageenan/kaolin induced paw edema (8 h time point, n=4-6) as compared to littermate controls. Mast-cell deficient mice or littermate controls with intact mast cells were treated with P2pal-18S (10 mg/kg, s.c.) or vehicle and hind paws challenged with 1-carrageenan/kaolin irritant. Error bars represent mean±SEM.
To examine whether mast cells and mast cell tryptase were activating PAR2 in the paw edema model in vivo, mice were depleted of mast cells through pretreatment with compound 48/80 (Carvalho M et al. Eur J Pharmacol (2005), 525: 161-169). […]

The target of data set [7] is T2, PAR2. The data set can be described thus: Human neutrophil chemotaxis to PAR2 agonists (trypsin, SLIGRL, tryptase). The data set is classed as cell-based. Set-up: SW620 colon adenocarcinoma cells that endogenously express PAR2; endogenous in cells; host or cells: SW620 (in A7 the SW620 cells were additionally stably transfected with PAR1). As for the experimental part:
as §1, §2

The test system of data set [8] is A549, HOP62, and HOP92 lung carcinoma cell lines. Put plainly: Cytotoxicity/cell viability of lung carcinoma cells (MIT assay). Format: cell-based, human. Particulars: 3-day period.
Data set [9] relates to VEGF-A production. Put plainly: Thrombin-dependent VEGF-A production in A549 cells (ELISA). Format: cell-based, human. Particulars: A549, 18 hours thrombin treatment. As for the experimental part:
FIG. 13 illustrates that monotherapy with PAR1-i3 pepducins inhibits tumor progression of A549 xenografts. (A) and (B): A549 mice treated with vehicle, P1pal-7, P1pal-i1-11, P1pal-10S, X1/2-i1, X1/2-i3, or Avastin. Each time point represents the mean±SE. (C): Final tumor volume at the completion of the experiment was calculated as a percentage of untreated vehicle control. (D): Serum-starved A549 adenocarcinoma cells were pretreated with P1pal-7, P1pal-10S, P1pal-i1-11, vehicle, or PD98059 and stimulated with thrombin. VEGF production was assessed by enzyme-linked immunosorbent assay. Data are expressed as mean±SD (*P<0.05, **P<0.01).
Because the i3-based P1pal-7 pepducin had similar efficacy as Avastin in suppressing lung tumor growth of A549 xenografts, VEGF-A production was measured in the A549 tumor cells after 18 hours thrombin treatment. […] Unlike in ovarian cancer, no increase was found in PAR1-mediated IL-8 production in A549 cells, consistent with the observed lack of efficacy of CXCR1/2 pepducins in the A549 xenograft models. These xenograft data provide support for the role of a novel PAR1-ERK1/2-VEGF paracrine pathway that is an effective therapeutic target in the A549 adenocarcinoma lung cancer model.
Background: ELISA stands for enzyme-linked immunosorbent assay.

SMILES strings stand for the structures. Peptide text beside a SMILES is read from it. * marks the point of attachment. Palmitoyl = CCCCCCCCCCCCCCCC(=O)*

T1 sequence (P55086 26-399): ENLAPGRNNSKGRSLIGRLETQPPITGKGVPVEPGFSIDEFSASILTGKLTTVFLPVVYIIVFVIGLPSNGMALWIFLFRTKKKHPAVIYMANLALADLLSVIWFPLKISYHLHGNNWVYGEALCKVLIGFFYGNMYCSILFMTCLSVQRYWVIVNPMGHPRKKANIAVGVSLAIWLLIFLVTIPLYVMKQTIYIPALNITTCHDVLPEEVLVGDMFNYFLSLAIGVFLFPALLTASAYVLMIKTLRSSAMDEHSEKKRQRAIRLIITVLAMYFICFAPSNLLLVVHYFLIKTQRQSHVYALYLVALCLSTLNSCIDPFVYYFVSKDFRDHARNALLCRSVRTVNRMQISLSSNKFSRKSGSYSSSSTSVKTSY

As to `CCCCCCCCCCCCCCCC(=O)N[C@@H](CCCNC(=N)N)C(=O)N[C@@H](CO)C(=O)N[C@@H](CO)C(=O)N[C@@H](C)C(=O)N[C@@H](CCSC)C(=O)N[C@@H](CC(=O)O)C(=O)N[C@@H](CCC(=O)O)C(=O)N[C@@H](CC(N)=O)C(=O)N[C@@H](CO)C(=O)N[C@@H](CCC(=O)O)C(=O)N[C@@H](CCCCN)C(=O)N[C@@H](CCCCN)C(=O)N[C@@H](CCCNC(=N)N)C(=O)N[C@@H](CCCCN)C(=O)N[C@@H](CO)C(=O)N[C@@H](C)C(=O)N[C@H](C(=O)N[C@@H](CCCCN)C(N)=O)[C@@H](C)CC` [P2pal-18S], in [1], the “Inhibition of mouse neutrophil migration” value was “completely inhibited”. For the same compound, the “Binding of PAR2 to peptide-coupled avidin beads versus beads alone” value in data set [2] is “enhanced binding”. The “Effect on trypsin cleavage of PAR2” value in data set [3] was “no effect”. Also, the “Inhibition of ligand-dependent endocytosis of PAR2” value in [4] was “did not inhibit”. The “Inhibition of ligand-dependent endocytosis of PAR1” value in data set [5] is listed as “did not inhibit”. Further, the “Decrease in peak development of edema” value in data set [6] (at 4 h, mast cell media intraplantar) turned out to be 50%. Also, the “Protection against edema at later times” value in data set [6] (at 8 h and thereafter) is “complete protection”. Besides, the “Inhibition of chemotactic migration to tryptase” value in [7] (0.3 μM pepducin, 100 nM tryptase) was “completely blocked”. In [7] (gradients of trypsin (30 nM) and SLIGRL (10 μM), 30 min, read-out: IC50, inhibition of neutrophil chemotaxis), the IC50 (commonly the midpoint of a concentration-inhibition curve) fell in the range of 140 to 200 nM.

For `CCCCCCCCCCCCCCCC(=O)N[C@H](C(=O)N[C@@H](CC(C)C)C(=O)N[C@@H](CCCCN)C(=O)N[C@@H](CCSC)C(=O)N[C@@H](CCCCN)C(=O)N[C@H](C(=O)N[C@@H](CCCCN)C(=O)N[C@@H](CCCCN)C(=O)N1CCC[C@H]1C(=O)N[C@@H](C)C(=O)N[C@H](C(N)=O)C(C)C)C(C)C)[C@@H](C)CC` [P1pal-i1-11] (Palmitoyl-ILKMKVKKPAV-NH2), the “Sensitivity of A549 cells (cytotoxicity)” value in data set [8] was “less sensitive”. Also, the “Effect on thrombin-dependent VEGF-A production” value in data set [9] is given as “did not inhibit”.
